# Columns and labels:
# [1] = cited from earlier work
# in vitro = format: cell-based; conditions: human
# Description: BEAS-2B (CRL-9609, ATCC, USA), a human bronchial epithelial cell line, was cultured in a T 75 flask containing DMEM (Gibco-BRL, USA) supplemented with 10% FBS at the concentration of 5×10^5 cells/ml. […] The concentration of the vehicle was less than 0.1% in every experiment.
# MTT assay with the BEAS-2B cell line was performed according to the method of Mossman et al (J. Immunol. Methods, 65, 55-63, 1983). […] 48 hours later, MTT (3-[4,5-dimethylthiazol-2-yl]-2,5-diphenyltetra zolium bromide) 5 mg/ml was added at the concentration of 5 mg/ml, followed by culture at 37° C. for 3 hours. Then, medium was eliminated and generated formazan crystal was dissolved in 500 μl of DMSO. The solution was aliquoted in a 96 well-plate and OD540 was measured.
# [2] = patients treated with amiodarone
# Description for BEAS-2B cells: Total RNA was extracted from the cells using trizol reagent (Invitrogen life technologies, USA) according to the manufacturer's instruction and the extracted RNA was purified by using RNeasy mini kit (Qiagen, USA). The genomic DNA was eliminated during the purification of RNA using RNase-free DNase set (Qiagen, USA). The total RNA was quantified by spectrophotometer and purity was measured by Agilent 2100 Bioanalyzer (Agilent Technologies, USA).
# 30 μg of the total RNA and 2 μg (1 μg/μl) of oligo (dT) primer were mixed, followed by reaction for 10 minutes at 65° C. Then, the reaction mixture was put in ice, followed by annealing.
# At this time, the two samples were mixed and purified by Microcon YM-30 column (Millipore, USA).
# Hybridization and washing were performed according to the instruction of GeneCneck Co., Ltd. Hybridization was performed in a 62° C. oven for 12 hours. At this time, 44 k whole human genome oligo microarray (Agilent, USA) was used as a DNA microarray chip. […]
# Scanning of the hybridized images on the slide was performed by using Genepix 4000B (Axon Instruments, USA). Fluorescence images of the chip washed to eliminate non-binding genes were obtained by laser fluorescence scanner. […] The scanned images were analyzed by GenePix 4.1 software (Axon Instruments, USA) to calculate the gene expression rate.
smiles,measurement,setting,value
CCCCc1oc2ccccc2c1C(=O)c1cc(I)c(OCCN(CC)CC)c(I)c1 [amiodarone],"patients exhibiting boredom, fatigue, tremor, walking difficulty and peripheral neuropathy",[1]; [2],20-40%
same,"patients showing gastrointestinal disorder, nausea, vomiting, constipation and loss of appetite",[1]; [2],Approximately 25%
same,patients treated with amiodarone exhibiting side effects,[1]; patients,approximately 50%
same,IC20 at 48 h,in vitro,29.4 µM
same,genes identified to be up-regulated,"BEAS-2B cells; 44 genes out of 44,290 genes, Cy5/Cy3 more than 2.0 fold",0.1%
same,genes identified to be down-regulated,"BEAS-2B cells; 45 genes out of 44,290 genes, Cy5/Cy3 less than 0.5 fold",0.10%
